Experimental data: PubChem BioAssay AID2060887 (Molecular Pharmacology Branch, DTP, NCI, 2025)
“And” between values parts separate entries of the source, which are not always exact repeats. Equal entries are not always repeated.

Tested on: 782815-120-R-J1-PDC complex spheroid viability
Experiment: Anticancer human tumor 782815-120-R-J1-PDC patient-derived colon adenocarcinoma cell line growth inhibition [RAS]
Conditions: for viability, T/C: stronger effect = lower value
Method in brief: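 Agents were tested in combination matrices in half-log decrements from a top concentration at or near clinical Cmax (10 microM if undetermined). Targets were multi-cell spheroids of tumour lines plus HUVEC and MSC stromal cells.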
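Further: spheroids exposed to compounds for 7 days before reading.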
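Wherever viability, T/C is given: 100% = DMSO vehicle control viability.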

`Nc1ccn(C2OC(CO)C(O)C2(F)F)c(=O)n1` (configuration not stated) was tested, and the viability, T/C (compound 0.00316 µM) was 91.4% [middle of 4 runs], the viability, T/C (compound 0.01 µM) was 71.8% [middle of 4 runs] and the viability, T/C (compound 0.1 µM) was 40.8% [middle of 4 runs]. For the same compound, the viability, T/C (compound 0.316 µM) was 27% [middle of 4 runs], the viability, T/C (compound 1 µM) was 25.6% [middle of 4 runs] and the IC50 (curve of compound) was 60.1 nM [middle of 4 runs].

In the case of `CC(C)NCC(C(=O)N1CCN(c2ncnc3c2C(C)CC3O)CC1)c1ccc(Cl)cc1` (configuration not stated), the viability, T/C (compound 0.0316 µM) is reported as 106% [middle of 4 runs], the viability, T/C (compound 0.1 µM) is reported as 98.9% [middle of 4 runs] and the viability, T/C (compound 0.316 µM) is reported as 104% (2×) and 101% and 91.7%. The viability, T/C (compound 1 µM) was 96% [middle of 4 runs], the viability, T/C (compound 3.16 µM) was 101% [middle of 4 runs] and the viability, T/C (compound 10 µM) was 104% [middle of 4 runs]. It also gave an IC50 (curve of compound) of over 10000 nM.

With `CC(=O)OC12COC1CC(O)C1(C)C(=O)C(O)C3=C(C)C(OC(=O)C(O)C(NC(=O)OC(C)(C)C)c4ccccc4)CC(O)(C(OC(=O)c4ccccc4)C21)C3(C)C` (configuration not stated) + CCn1c(-c2cc(N3CCN(C)CC3)cnc2C(C)OC)c2c3cc(ccc31)-c1csc(n1)CC(NC(=O)C1CC1C)C(=O)N1CCCC(N1)C(=O)OCC(C)(C)C2 the IC50 (curve of first compound, second compound 0.000949 µM) was under 31.6 nM, the IC50 (curve of first compound, second compound 0.003 µM) was under 31.6 nM and the IC50 (curve of first compound, second compound 0.00949 µM) was under 31.6 nM. The IC50 (curve of first compound, second compound 0.03 µM) was under 31.6 nM, the IC50 (curve of first compound, second compound 0.0949 µM) was under 31.6 nM and the IC50 (curve of first compound, second compound 0.3 µM) was under 31.6 nM. The viability, T/C (second compound 0.000949 µM, first compound 0.0316 µM) was 26%, the viability, T/C (second compound 0.000949 µM, first compound 0.1 µM) was 27.8% and the viability, T/C (second compound 0.000949 µM, first compound 0.316 µM) was 23.1%. For the same compound, the viability, T/C (second compound 0.000949 µM, first compound 1 µM) was 28.1%, the viability, T/C (second compound 0.000949 µM, first compound 3.16 µM) was 27.1% and the viability, T/C (second compound 0.000949 µM, first compound 10 µM) was 32.5%. It also gave a viability, T/C (second compound 0.003 µM, first compound 0.0316 µM) of 25.8%, a viability, T/C (second compound 0.003 µM, first compound 0.1 µM) of 24.6% and a viability, T/C (second compound 0.003 µM, first compound 0.316 µM) of 23.2%. For the same compound, the viability, T/C (second compound 0.003 µM, first compound 1 µM) was 22%, the viability, T/C (second compound 0.003 µM, first compound 3.16 µM) was 21.3% and the viability, T/C (second compound 0.003 µM, first compound 10 µM) was 25.7%. It also gave a viability, T/C (second compound 0.00949 µM, first compound 0.0316 µM) of 19.1%, a viability, T/C (second compound 0.00949 µM, first compound 0.1 µM) of 16.4% and a viability, T/C (second compound 0.00949 µM, first compound 0.316 µM) of 15.1%. For the same compound, the viability, T/C (second compound 0.00949 µM, first compound 1 µM) was 16.4%, the viability, T/C (second compound 0.00949 µM, first compound 3.16 µM) was 19.1% and the viability, T/C (second compound 0.00949 µM, first compound 10 µM) was 16.1%. For the same compound, the viability, T/C (second compound 0.03 µM, first compound 0.0316 µM) was 12.5%, the viability, T/C (second compound 0.03 µM, first compound 0.1 µM) was 13.5% and the viability, T/C (second compound 0.03 µM, first compound 0.316 µM) was 13.3%. The viability, T/C (second compound 0.03 µM, first compound 1 µM) was 13.3%, the viability, T/C (second compound 0.03 µM, first compound 3.16 µM) was 14.8% and the viability, T/C (second compound 0.03 µM, first compound 10 µM) was 13.3%. It also gave a viability, T/C (second compound 0.0949 µM, first compound 0.0316 µM) of 12.6%, a viability, T/C (second compound 0.0949 µM, first compound 0.1 µM) of 12.4% and a viability, T/C (second compound 0.0949 µM, first compound 0.316 µM) of 10.3%. The viability, T/C (second compound 0.0949 µM, first compound 1 µM) was 12.2%, the viability, T/C (second compound 0.0949 µM, first compound 3.16 µM) was 11.3% and the viability, T/C (second compound 0.0949 µM, first compound 10 µM) was 11.3%. It also gave a viability, T/C (second compound 0.3 µM, first compound 0.0316 µM) of 13%, a viability, T/C (second compound 0.3 µM, first compound 0.1 µM) of 12.6% and a viability, T/C (second compound 0.3 µM, first compound 0.316 µM) of 9.92%. The viability, T/C (second compound 0.3 µM, first compound 1 µM) was 9.28%, the viability, T/C (second compound 0.3 µM, first compound 3.16 µM) was 10.9% and the viability, T/C (second compound 0.3 µM, first compound 10 µM) was 13%.

With `C=CC(=O)Nc1cc(Nc2nccc(-c3cn(C)c4ccccc34)n2)c(OC)cc1N(C)CCN(C)C` the viability, T/C (compound 0.00316 µM) was 93.8% and 93.6% (2×) and 98%, the viability, T/C (compound 0.01 µM) was 99.9% [middle of 4 runs] and the viability, T/C (compound 0.0316 µM) was 96.3% [middle of 4 runs]. For the same compound, the viability, T/C (compound 0.1 µM) was 94.3% [middle of 4 runs], the viability, T/C (compound 0.316 µM) was 94.1% [middle of 4 runs] and the viability, T/C (compound 1 µM) was 91.1% [middle of 4 runs]. It also gave an IC50 (curve of compound) of over 1000 nM.
